Laboratory results from US20210214375A1 (LUNDBECK LA JOLLA RESEARCH CENTER, INC., priority 2017, published 2021).

Experiments:
MAGL = target: T1, MAGL (Mus musculus, UniProt O35678); experiment: Mouse brain proteomes from inhibitor treated mice (oral gavage, brain proteomes analyzed 4 h after administration); assay type: in vivo, mouse (C57Bl/6J); conditions: brain proteome 4 h after administration, read-out: % Inh 5 mg/kg MGLL (Mouse)
T1 construct: from tissue; host or cells: brain of wild-type C57Bl/6J mice
T1 sequence (O35678 1-303): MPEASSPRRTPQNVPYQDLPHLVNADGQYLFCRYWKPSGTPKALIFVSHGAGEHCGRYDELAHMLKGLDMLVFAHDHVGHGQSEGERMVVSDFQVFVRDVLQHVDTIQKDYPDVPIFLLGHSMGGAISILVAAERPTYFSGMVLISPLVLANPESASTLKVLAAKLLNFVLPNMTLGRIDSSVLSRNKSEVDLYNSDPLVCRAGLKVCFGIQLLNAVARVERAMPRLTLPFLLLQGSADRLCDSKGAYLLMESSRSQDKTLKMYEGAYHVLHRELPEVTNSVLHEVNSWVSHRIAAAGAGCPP
Procedure, shortened: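 Wild-type C57Bl/6J mice dosed orally in polyethylene glycol vehicle; brains removed 4 h post-dose and brain proteomes prepared and analysed for MAGL and serine hydrolase activity by previously established methods.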

MGLL = target: T2, MGLL (Mus musculus, UniProt O35678); experiment: In vitro competitive activity-based protein profiling, mouse brain proteome; assay type: biochemical
T2 construct: Brain; from tissue; host or cells: mouse brain proteome
T2 sequence (O35678 1-303): T1 sequence (O35678 1-303)
Description: [Worded in the source for another species; this species is reported under the same test.] (§1) Proteomes (human prefrontal cortex or cell membrane fractions) (50 μL, 1.0 mg/mL total protein concentration) were preincubated with varying concentrations of inhibitors at 37° C. After 30 min, FP—Rh or HT-01 (1.0 μL, 50 μM in DMSO) was added and the mixture was incubated for another 30 min at room temperature. Reactions were quenched with SDS loading buffer (15 μL-4×) and run on SDS-PAGE.

ABHD6 = target: T3, ABHD6 (Mus musculus, UniProt Q8R2Y0); experiment: In vitro competitive activity-based protein profiling, mouse brain proteome, ABHD6; assay type: biochemical; conditions: mouse
T3 construct: Brain; from tissue; host or cells: mouse brain proteome
T3 sequence (Q8R2Y0 1-336): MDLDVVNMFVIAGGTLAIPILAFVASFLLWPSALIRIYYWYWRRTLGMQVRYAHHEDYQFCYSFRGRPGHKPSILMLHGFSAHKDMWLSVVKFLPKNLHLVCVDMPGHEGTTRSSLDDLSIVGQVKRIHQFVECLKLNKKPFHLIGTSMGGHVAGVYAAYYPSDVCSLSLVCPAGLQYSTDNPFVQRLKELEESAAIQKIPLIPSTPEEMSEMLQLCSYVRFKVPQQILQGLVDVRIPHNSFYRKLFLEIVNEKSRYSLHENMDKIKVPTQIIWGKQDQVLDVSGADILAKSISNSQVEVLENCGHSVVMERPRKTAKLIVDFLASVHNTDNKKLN
Description: [Worded in the source for another target; this target is reported under the same test.] as §1

Structure (SMILES) | inhibition at 5 mg/kg (MAGL) [%] | IC50 (MGLL) [nM] | IC50 (ABHD6) [nM]
CS(=O)(=O)N1CCC2(CCN(c3ccccc3CN3CCN(C(=O)OC(C(F)(F)F)C(F)(F)F)CC3)C2)C1 (stereo not drawn) [Example 165, 1,1,1,3,3,3-Hexafluoropropan-2-yl 4-(2-(7-(methylsulfonyl)-2,7-diazaspiro[4.4]nonan-2-yl)benzyl)piperazine-1-carboxylate] | ≥ 75 | < 100 | > 1000
CC(=O)N1CCC2(CCN(c3ccccc3CN3CCN(C(=O)OC(C(F)(F)F)C(F)(F)F)CC3)C2)C1 (stereo not drawn) [Example 166, 1,1,1,3,3,3-Hexafluoropropan-2-yl 4-(2-(7-acetyl-2,7-diazaspiro[4.4]nonan-2-yl)benzyl)piperazine-1-carboxylate] | ≤ 25 | < 100 | > 1000
CS(=O)(=O)N1CC2(CCN(c3ccccc3CN3CCN(C(=O)OC(C(F)(F)F)C(F)(F)F)CC3)C2)C1 [Example 167, 1,1,1,3,3,3-Hexafluoropropan-2-yl 4-(2-(2-(methylsulfonyl)-2,6-diazaspiro[3.4]octan-6-yl)benzyl)piperazine-1-carboxylate] | ≥ 75 | < 100 | > 1000
O=C(OC(C(F)(F)F)C(F)(F)F)N1CCC2(CCN(Cc3cccc(Cl)c3N3CCCC3)CC2)C1 [Example 171, 1,1,1,3,3,3-Hexafluoropropan-2-yl 8-(3-chloro-2-(pyrrolidin-1-yl)benzyl)-2,8-diazaspiro[4.5]decane-2-carboxylate] | ≥ 75 | < 100 | > 1000
CS(=O)(=O)N1CC2(CCN(c3cc(Cl)ccc3CN3CCN(C(=O)OC(C(F)(F)F)C(F)(F)F)CC3)C2)C1 [Example 175, 1,1,1,3,3,3-Hexafluoropropan-2-yl 4-(4-chloro-2-(2-(methylsulfonyl)-2,6-diazaspiro[3.4]octan-6-yl)benzyl)piperazine-1-carboxylate] | ≥ 75 | < 100 | > 1000
CC(=O)N1CC2(CCN(c3cc(Cl)ccc3CN3CCN(C(=O)OC(C(F)(F)F)C(F)(F)F)CC3)C2)C1 [Example 176, 1,1,1,3,3,3-Hexafluoropropan-2-yl 4-(2-(2-acetyl-2,6-diazaspiro[3.4]octan-6-yl)-4-chlorobenzyl) piperazine-1-carboxylate] | ≥ 75 | < 100 | > 1000
CN1CCC2(CCN(c3cc(Cl)ccc3CN3CCN(C(=O)OC(C(F)(F)F)C(F)(F)F)CC3)CC2)C1 [Example 177, 1,1,1,3,3,3-Hexafluoropropan-2-yl 4-(4-chloro-2-(2-methyl-2,8-diazaspiro[4.5]decan-8-yl)benzyl)piperazine-1-carboxylate] | 25 to 75 | < 100 | > 1000
CC(=O)N1CCC2(CCN(c3cc(Cl)ccc3CN3CCN(C(=O)OC(C(F)(F)F)C(F)(F)F)CC3)CC2)C1 [Example 178, 1,1,1,3,3,3-Hexafluoropropan-2-yl 4-(2-(2-acetyl-2,8-diazaspiro[4.5]decan-8-yl)-4-chlorobenzyl) piperazie-1-carboxylate] | ≥ 75 | < 100 | > 1000
CN1CC2(CCN(c3cc(C(F)(F)F)ccc3CN3CCN(C(=O)OC(C(F)(F)F)C(F)(F)F)CC3)C2)C1 [Example 179, 1,1,1,3,3,3-Hexafluoropropan-2-yl 4-(2-(2-methyl-2,6-diazaspiro[3.4]octan-6-yl)-4-(trifluoromethyl)benzyl)piperazine-1-carboxylate] | ≥ 75 | < 100 | > 1000
O=C(OC(C(F)(F)F)C(F)(F)F)N1CCC2(CCN(Cc3ccc(Cl)cc3N3CCOCC3)CC2)C1 [Example 181, 1,1,1,3,3,3-Hexafluoropropan-2-yl 8-(4-chloro-2-molpholinobenzyl)-2,8-diazaspiro[4.5]decane-2-carboxylate] | ≥ 75 | < 100 | > 1000
CN1CCC2(CCN(c3cc(C(F)(F)F)ccc3CN3CCN(C(=O)OC(C(F)(F)F)C(F)(F)F)CC3)CC2)C1 [Example 182, 1,1,1,3,3,3-Hexafluoropropan-2-yl 4-(2-(2-methyl-2,8-diazaspiro[4.5]decan-8-yl)-4-(trifluoromethyl)benzyl)piperazine-1-carboxylate] | ≤ 25 | < 100 | > 1000
CCN1CC2(CCN(c3cc(C(F)(F)F)ccc3CN3CCN(C(=O)OC(C(F)(F)F)C(F)(F)F)CC3)C2)C1 [Example 184, 1,1,1,3,3,3-Hexafluoropropan-2-yl 4-(2-(2-ethyl-2,6-diazaspiro[3.4]octan-6-yl)-4-(trifluoromethyl)benzyl)piperazine-1-carboxylate] | ≤ 25 | < 100 | > 1000
O=C(OC(C(F)(F)F)C(F)(F)F)N1CCC2(CCN(Cc3ccc(C(F)(F)F)cc3N3CCCCC3)CC2)C1 [Example 187, 1,1,1,3,3,3-Hexafluoropropan-2-yl 8-(2-(piperidin-1-yl)-4-(trifluoromethyl)benzyl)-2,8-diazaspiro[4.5]decane-2-carboxylate] | ≥ 75 | < 100 | > 1000
O=C(OC(C(F)(F)F)C(F)(F)F)N1CCC2(CCN(Cc3ccc(C(F)(F)F)cc3N3CC4CCC(C3)O4)CC2)C1 [Example 190, 1,1,1,3,3,3-Hexafluoropropan-2-yl 8-(2-(8-oxa-3-azabicyclo[3.2.1]octan-3-yl)-4-(trifluoromethyl)benzyl)-2,8-diazaspiro[4.5]decane-2-carboxylate] | ≥ 75 | < 100 | > 1000
O=C(OC(C(F)(F)F)C(F)(F)F)N1CCC2(CCN(Cc3ccc(Cl)cc3N3CCCCC3)CC2)C1 [Example 191, 1,1,1,3,3,3-Hexafluoropropan-2-yl 8-(4-chloro-2-(piperidin-1-yl)benzyl)-2,8-diazaspiro[4.5]decane-2-carboxylate] | ≥ 75 | < 100 | > 1000
O=C(OC(C(F)(F)F)C(F)(F)F)N1CCC2(CCN(Cc3ccc(C(F)(F)F)cc3N3CCC(F)CC3)CC2)C1 [Example 192, 1,1,1,3,3,3-Hexafluoropropan-2-yl 8-(2-(4-fluoropiperidin-1-yl)-4-(trifluoromethyl)benzyl)-2,8-diazaspiro[4.5]decane-2-carboxylate] | 25 to 75 | < 100 | > 1000
CS(=O)(=O)N1CCC2(CCN(c3cc(C(F)(F)F)ccc3CN3CCN(C(=O)OC(C(F)(F)F)C(F)(F)F)CC3)C2)CC1 [Example 196, 1,1,1,3,3,3-Hexafluoropropan-2-yl 4-(2-(8-(methylsulfonyl)-2,8-diazaspiro[4.5]decan-2-yl)-4-(trifluoromethyl)benzyl)piperazine-1-carboxylate] | ≤ 25 | < 100 | > 1000
CC(=O)N1CCC2(CC1)CCN(c1cc(C(F)(F)F)ccc1CN1CCN(C(=O)OC(C(F)(F)F)C(F)(F)F)CC1)C2 [Example 197, 1,1,1,3,3,3-Hexafluoropropan-2-yl 4-(2-(8-acetyl-2,8-diazaspiro[4.5]decan-2-yl)-4-(trifluoromethyl)benzyl)piperazine-1-carboxylate] | ≤ 25 | < 100 | > 1000
CC(=O)N1CCC2(CC1)CN(c1cc(Cl)ccc1CN1CCN(C(=O)OC(C(F)(F)F)C(F)(F)F)CC1)C2 [Example 198, 1,1,1,3,3,3-Hexafluoropropan-2-yl 4-(2-(7-acetyl-2,7-diazaspiro[3.5]nonan-2-yl)-4-chlorobenzyl)piperazine-1-carboxylate] | ≥ 75 | < 100 | > 1000
CC(=O)N1CCC2(CC1)CN(c1cc(C(F)(F)F)ccc1CN1CCN(C(=O)OC(C(F)(F)F)C(F)(F)F)CC1)C2 [Example 199, 1,1,1,3,3,3-Hexafluoropropan-2-yl 4-(2-(7-acetyl-2,7-diazaspiro[3.5]nonan-2-yl)-4-(trifluoromethyl)benzyl)piperazine-1-carboxylate] | ≥ 75 | < 100 | > 1000
CS(=O)(=O)N1CC2(CCN(c3cc(C(F)(F)F)ccc3CN3CCN(C(=O)OC(C(F)(F)F)C(F)(F)F)CC3)CC2)C1 [Example 211, 1,1,1,3,3,3-Hexafluoropropan-2-yl 4-(2-(2-(methylsulfonyl)-2,7-diazaspiro[3.5]nonan-7-yl)-4-(trifluoromethyl)benzyl)piperazine-1-carboxylate] | ≥ 75 | < 100 | > 1000
